{"source": "paper PMC6943423", "about": "“Structure-Activity Study of an All-D Antimicrobial Octapeptide D2D” (Molecules, 2019)", "note": "Square brackets hold non-standard residues; d marks the D form. Peptide text beside a SMILES is read from it. d1Nal = N[C@H](Cc1cccc2ccccc12)C(=O)O; dNle = CCCC[C@@H](N)C(=O)O; dDap = NC[C@@H](N)C(=O)O"}
{"test_system": "human red blood cells", "assay": "Hemolytic activity", "format": "cell-based", "conditions": "red cells of human, 1 h, 150", "description": "The percentage of hemolysis at 150 μM was determined for all compounds as previously described. Briefly, two-fold serial dilutions (2.35 to 150 μM) of compounds in PBS were mixed with a 0.5% v/v suspension of fresh human red blood cells (RBC) in the same buffer. After 1 h incubation at 37 °C, plates were centrifuged and aliquots of the supernatants were transferred to clear ELISA plates. Absorbance at 414 nm was determined and normalised with respect to a negative (PBS, 0%) and positive (melittin, 100%) control.", "units": {"%H (% Hemolysis at 150 µM)": "%"}}
{"smiles": "CCCC[C@@H](NC(=O)[C@@H](CCCCN)NC(=O)[C@@H](Cc1cccc2ccccc12)NC(=O)[C@@H](CCCNC(=N)N)NC(=O)[C@@H](Cc1ccccc1)NC(=O)[C@@H](Cc1cccc2ccccc12)NC(=O)[C@@H](CCCCN)NC(=O)[C@H](N)CCCCN)C(N)=O", "note": "[Compound 35, kk(1-nal)fr(1-nal)k(nle)-NH2] (H-[dK][dK][d1Nal][dF][dR][d1Nal][dK][dNle]-NH2; N-terminus assumed)", "%H (% Hemolysis at 150 µM)": 49}
{"smiles": "CCCC[C@@H](NC(=O)[C@@H](Cc1cccc2ccccc12)NC(=O)[C@@H](CCCCN)NC(=O)[C@@H](Cc1ccccc1)NC(=O)[C@@H](Cc1cccc2ccccc12)NC(=O)[C@@H](CCCCN)NC(=O)[C@H](N)CCCCN)C(=O)N[C@H](CCCCN)C(N)=O", "note": "[Compound 26, kk(1-nal)fk(1-nal)(nle)k-NH2] (H-[dK][dK][d1Nal][dF][dK][d1Nal][dNle][dK]-NH2; N-terminus assumed)", "%H (% Hemolysis at 150 µM)": 18}
{"smiles": "CCCC[C@@H](NC(=O)[C@@H](CCCC)NC(=O)[C@@H](Cc1cccc2ccccc12)NC(=O)[C@@H](CCCCN)NC(=O)[C@@H](Cc1ccccc1)NC(=O)[C@@H](Cc1cccc2ccccc12)NC(=O)[C@@H](CCCCN)NC(=O)[C@H](N)CCCCN)C(N)=O", "note": "[Compound 19, kk(1-nal)fk(1-nal)(nle)(nle)-NH2] (H-[dK][dK][d1Nal][dF][dK][d1Nal][dNle][dNle]-NH2; N-terminus assumed)", "%H (% Hemolysis at 150 µM)": 56}
{"smiles": "CCCC[C@@H](NC(=O)[C@@H](Cc1ccccc1)NC(=O)[C@@H](Cc1cccc2ccccc12)NC(=O)[C@@H](CCCCN)NC(=O)[C@@H](Cc1ccccc1)NC(=O)[C@@H](Cc1cccc2ccccc12)NC(=O)[C@@H](CCCCN)NC(=O)[C@H](N)CCCCN)C(N)=O", "note": "[Compound 20, kk(1-nal)fk(1-nal)f(nle)-NH2] (H-[dK][dK][d1Nal][dF][dK][d1Nal][dF][dNle]-NH2; N-terminus assumed)", "%H (% Hemolysis at 150 µM)": 91}
{"smiles": "CCCC[C@@H](NC(=O)[C@@H](CCCCN)NC(=O)[C@@H](Cc1cccc2ccccc12)NC(=O)[C@@H](CCCCN)NC(=O)[C@@H](Cc1ccccc1)NC(=O)[C@@H](Cc1cccc2ccccc12)NC(=O)[C@H](N)CCCCN)C(N)=O", "note": "[Compound 27, k(1-nal)fk(1-nal)k(nle)-NH2] (H-[dK][d1Nal][dF][dK][d1Nal][dK][dNle]-NH2; N-terminus assumed)", "%H (% Hemolysis at 150 µM)": 49}
{"smiles": "CCCC[C@@H](NC(=O)[C@@H](CCCCN)NC(=O)[C@@H](Cc1cccc2ccccc12)NC(=O)[C@@H](CN)NC(=O)[C@@H](Cc1ccccc1)NC(=O)[C@@H](Cc1cccc2ccccc12)NC(=O)[C@@H](CCCCN)NC(=O)[C@H](N)CCCCN)C(N)=O", "note": "[Compound 10, kk(1-nal)f(dap)(1-nal)k(nle)-NH2] (H-[dK][dK][d1Nal][dF][dDap][d1Nal][dK][dNle]-NH2; N-terminus assumed)", "%H (% Hemolysis at 150 µM)": 28}
{"smiles": "CCCC[C@@H](NC(=O)[C@@H](CCCCN)NC(=O)[C@@H](Cc1cccc2ccccc12)NC(=O)[C@H](NC(=O)[C@@H](Cc1ccccc1)NC(=O)[C@@H](Cc1cccc2ccccc12)NC(=O)[C@@H](CCCCN)NC(=O)[C@H](N)CCCCN)C(C)C)C(N)=O", "note": "[Compound 16, kk(1-nal)fv(1-nal)k(nle)-NH2] (H-[dK][dK][d1Nal][dF][dV][d1Nal][dK][dNle]-NH2; N-terminus assumed)", "%H (% Hemolysis at 150 µM)": 54}
{"smiles": "CCCC[C@@H](NC(=O)[C@@H](CCCCN)NC(=O)[C@@H](Cc1cccc2ccccc12)NC(=O)[C@@H](Cc1cccc2ccccc12)NC(=O)[C@@H](Cc1ccccc1)NC(=O)[C@@H](Cc1cccc2ccccc12)NC(=O)[C@@H](CCCCN)NC(=O)[C@H](N)CCCCN)C(N)=O", "note": "[Compound 9, kk(1-nal)f(1-nal)(1-nal)k(nle)-NH2] (H-[dK][dK][d1Nal][dF][d1Nal][d1Nal][dK][dNle]-NH2; N-terminus assumed)", "%H (% Hemolysis at 150 µM)": 20}
{"smiles": "CCCC[C@@H](NC(=O)[C@@H](Cc1cccc2ccccc12)NC(=O)[C@@H](CCCCN)NC(=O)[C@@H](CCCCN)NC(=O)[C@@H](Cc1ccccc1)NC(=O)[C@@H](Cc1cccc2ccccc12)NC(=O)[C@@H](CCCCN)NC(=O)[C@H](N)CCCCN)C(N)=O", "note": "[Compound 25, kk(1-nal)fkk(1-nal)(nle)-NH2] (H-[dK][dK][d1Nal][dF][dK][dK][d1Nal][dNle]-NH2)", "%H (% Hemolysis at 150 µM)": 50}
{"smiles": "CCCC[C@@H](NC(=O)[C@@H](CO)NC(=O)[C@@H](Cc1cccc2ccccc12)NC(=O)[C@@H](CCCCN)NC(=O)[C@@H](Cc1ccccc1)NC(=O)[C@@H](Cc1cccc2ccccc12)NC(=O)[C@@H](CCCCN)NC(=O)[C@H](N)CCCCN)C(N)=O", "note": "[Compound 21, kk(1-nal)fk(1-nal)s(nle)-NH2] (H-[dK][dK][d1Nal][dF][dK][d1Nal][dS][dNle]-NH2; N-terminus assumed)", "%H (% Hemolysis at 150 µM)": 85}
{"smiles": "CCCC[C@@H](NC(=O)[C@@H](CCCCN)NC(=O)[C@@H](Cc1cccc2ccccc12)NC(=O)[C@H](NC(=O)[C@@H](Cc1ccccc1)NC(=O)[C@@H](Cc1cccc2ccccc12)NC(=O)[C@@H](CCCCN)NC(=O)[C@H](N)CCCCN)[C@H](C)O)C(N)=O", "note": "[Compound 14, kk(1-nal)ft(1-nal)k(nle)-NH2] (H-[dK][dK][d1Nal][dF][dT][d1Nal][dK][dNle]-NH2; N-terminus assumed)", "%H (% Hemolysis at 150 µM)": 28}
{"smiles": "CCCC[C@@H](NC(=O)[C@@H](CCCCN)NC(=O)[C@@H](Cc1cccc2ccccc12)NC(=O)[C@@H](CCCCN)NC(=O)[C@@H](Cc1ccccc1)NC(=O)[C@@H](Cc1cccc2ccccc12)NC(=O)[C@@H](CCCNC(=N)N)NC(=O)[C@H](N)CCCCN)C(N)=O", "note": "[Compound 34, kr(1-nal)fk(1-nal)k(nle)-NH2] (H-[dK][dR][d1Nal][dF][dK][d1Nal][dK][dNle]-NH2; N-terminus assumed)", "%H (% Hemolysis at 150 µM)": 35}
{"smiles": "CCCC[C@@H](NC(=O)[C@@H](CCCCN)NC(=O)[C@@H](Cc1cccc2ccccc12)NC(=O)[C@@H](CCCCN)NC(=O)[C@@H](Cc1ccccc1)NC(=O)[C@H](N)Cc1cccc2ccccc12)C(N)=O", "note": "[Compound 28, (1-nal)fk(1-nal)k(nle)-NH2] (H-[d1Nal][dF][dK][d1Nal][dK][dNle]-NH2; N-terminus assumed)", "%H (% Hemolysis at 150 µM)": 62}
{"smiles": "CCCC[C@@H](NC(=O)[C@@H](CCCNC(=N)N)NC(=O)[C@@H](Cc1cccc2ccccc12)NC(=O)[C@@H](CCCCN)NC(=O)[C@@H](Cc1ccccc1)NC(=O)[C@@H](Cc1cccc2ccccc12)NC(=O)[C@@H](CCCCN)NC(=O)[C@H](N)CCCCN)C(N)=O", "note": "[Compound 36, kk(1-nal)fk(1-nal)r(nle)-NH2] (H-[dK][dK][d1Nal][dF][dK][d1Nal][dR][dNle]-NH2; N-terminus assumed)", "%H (% Hemolysis at 150 µM)": 51}
{"smiles": "CCCC[C@@H](NC(=O)[C@@H](CCCCN)NC(=O)[C@@H](Cc1cccc2ccccc12)NC(=O)[C@@H](CCCCN)NC(=O)[C@@H](Cc1ccccc1)NC(=O)[C@@H](Cc1cccc2ccccc12)NC(=O)[C@@H](CCCCN)NC(=O)[C@H](N)CCCNC(=N)N)C(N)=O", "note": "[Compound 33, rk(1-nal)fk(1-nal)k(nle)-NH2] (H-[dR][dK][d1Nal][dF][dK][d1Nal][dK][dNle]-NH2)", "%H (% Hemolysis at 150 µM)": 60}
{"smiles": "CCCC[C@@H](NC(=O)[C@@H](CCCCN)NC(=O)[C@@H](Cc1cccc2ccccc12)NC(=O)[C@@H](Cc1ccc(O)cc1)NC(=O)[C@@H](Cc1ccccc1)NC(=O)[C@@H](Cc1cccc2ccccc12)NC(=O)[C@@H](CCCCN)NC(=O)[C@H](N)CCCCN)C(N)=O", "note": "[Compound 15, kk(1-nal)fy(1-nal)k(nle)-NH2] (H-[dK][dK][d1Nal][dF][dY][d1Nal][dK][dNle]-NH2; N-terminus assumed)", "%H (% Hemolysis at 150 µM)": 40}
{"smiles": "CCCC[C@@H](NC(=O)[C@@H](Cc1cccc2ccccc12)NC(=O)[C@@H](Cc1cccc2ccccc12)NC(=O)[C@@H](CCCCN)NC(=O)[C@@H](Cc1ccccc1)NC(=O)[C@@H](Cc1cccc2ccccc12)NC(=O)[C@@H](CCCCN)NC(=O)[C@H](N)CCCCN)C(N)=O", "note": "[Compound 17, kk(1-nal)fk(1-nal)(1-nal)(nle)-NH2] (H-[dK][dK][d1Nal][dF][dK][d1Nal][d1Nal][dNle]-NH2; N-terminus assumed)", "%H (% Hemolysis at 150 µM)": 89}
{"smiles": "CCCC[C@@H](NC(=O)[C@H](NC(=O)[C@@H](Cc1cccc2ccccc12)NC(=O)[C@@H](CCCCN)NC(=O)[C@@H](Cc1ccccc1)NC(=O)[C@@H](Cc1cccc2ccccc12)NC(=O)[C@@H](CCCCN)NC(=O)[C@H](N)CCCCN)[C@H](C)O)C(N)=O", "note": "[Compound 22, kk(1-nal)fk(1-nal)t(nle)-NH2] (H-[dK][dK][d1Nal][dF][dK][d1Nal][dT][dNle]-NH2; N-terminus assumed)", "%H (% Hemolysis at 150 µM)": 66}
{"smiles": "CCCC[C@@H](NC(=O)[C@@H](Cc1ccc(O)cc1)NC(=O)[C@@H](Cc1cccc2ccccc12)NC(=O)[C@@H](CCCCN)NC(=O)[C@@H](Cc1ccccc1)NC(=O)[C@@H](Cc1cccc2ccccc12)NC(=O)[C@@H](CCCCN)NC(=O)[C@H](N)CCCCN)C(N)=O", "note": "[Compound 23, kk(1-nal)fk(1-nal)y(nle)-NH2] (H-[dK][dK][d1Nal][dF][dK][d1Nal][dY][dNle]-NH2; N-terminus assumed)", "%H (% Hemolysis at 150 µM)": 74}
{"smiles": "NCCCC[C@@H](N)C(=O)N[C@H](CCCCN)C(=O)N[C@H](Cc1cccc2ccccc12)C(=O)N[C@H](Cc1ccccc1)C(=O)N[C@H](CCCCN)C(=O)N[C@H](Cc1cccc2ccccc12)C(N)=O", "note": "[Compound 31, kk(1-nal)fk(1-nal)-NH2] (HELM PEPTIDE1{[dK].[dK].[O=C([C@@H](Cc1cccc2ccccc12)N[*:1])[*:2]].[dF].[dK].[O=C([C@@H](Cc1cccc2ccccc12)N[*:1])[*:2]].[am]}$$$$V2.0; N-terminus assumed)", "%H (% Hemolysis at 150 µM)": 20}
